Results: patent publication US20250326715A1, “NOVEL MAIN PROTEASE INHIBITORS, AND COMPOSITIONS AND METHODS THEREOF” (University of Massachusetts, priority 2023, published 2025)
Where two headings read alike, the source gives them in different places.

How the values were obtained:
SARS-CoV-2 M^Pro [1] = target: T1, SARS-CoV-2 M^Pro (Severe acute respiratory syndrome coronavirus 2, UniProt P0DTD1); assay: Determination of IC50 values for SARS-CoV-2 M^Pro (fluorogenic peptide substrate, end-point); type: biochemical
SARS-CoV-2 M^Pro [2] = target: T1, SARS-CoV-2 M^Pro; assay: Determination of KI values for SARS-CoV-2 M^Pro (initial velocity, competitive inhibition); type: biochemical
SARS-CoV-2 PL^Pro = SARS-CoV-2 PL^Pro (Severe acute respiratory syndrome coronavirus 2, UniProt P0DTD1); assay: Determination of IC50 values for SARS-CoV-2 PL^Pro (Z-RLRGG-AMC substrate); type: biochemical
Cathepsin L = target: T2, Cathepsin L (Homo sapiens, UniProt P07711); assay: Cathepsin L inhibition assay kit (Abcam), IC50 and kinact/KI; type: biochemical; conditions: for IC50: 20 min pretreatment; for kinact/KI: read-out: Cathepsin L kinact/KI
T2 construct: purchased Abcam ab197012
T2 sequence (P07711 114-333): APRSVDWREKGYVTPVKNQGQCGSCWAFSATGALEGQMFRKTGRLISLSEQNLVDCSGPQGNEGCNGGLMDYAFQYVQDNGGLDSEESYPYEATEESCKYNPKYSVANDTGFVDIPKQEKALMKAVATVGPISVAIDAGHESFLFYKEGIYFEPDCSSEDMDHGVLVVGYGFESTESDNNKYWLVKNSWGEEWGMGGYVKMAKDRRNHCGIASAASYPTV
Experimental: (§1) Determination of IC50 and kinact/KI values for Cathepsins L and B
IC50 and kinact/KI values of the inhibitors were determined using commercially available inhibition assay kits (Abcam) by following the manufacturer's protocol. […] The observed rates (kobs) were determined by fitting to a single-phase association equation. The resulting kobs values were plotted against the concentrations of inhibitor and the data were fit to equation 2 to derive the kinact/KI values,
using GraphPad Prism, where kinact is the maximal rate of inactivation, KI is the concentration of inhibitor that affords half-maximal inactivation, and [I] is the concentration of inhibitor. When kobs with [I] varied linearly, kinact/KI was determined from the slope of the line. All the experiments were performed in triplicate. […] Crystallization of M^Pro in Complex with Inhibitors

Cathepsin B = target: T3, Cathepsin B (Homo sapiens, UniProt P07858); assay: Cathepsin B inhibition assay kit (Abcam), IC50; type: biochemical; conditions: 20 min pretreatment
T3 construct: purchased Abcam ab185438
Experimental: as §1
IC50 and kinact/KI values of the inhibitors were determined using commercially available inhibition assay kits (Abcam) by following the manufacturer's protocol. For IC50 values, enzymes were pretreated with test inhibitor (0-50 μM) for 20 min prior to adding the fluorogenic substrate, and end-point fluorescence was recorded after 30 min. For the kinact/KI values, enzymes were treated with inhibitor and substrate simultaneously and increase in fluorescence was monitored over 60 min. The observed rates (kobs) were determined by fitting to a single-phase association equation. The resulting kobs values were plotted against the concentrations of inhibitor and the data were fit to equation 2 to derive the kinact/KI values,
using GraphPad Prism, where kinact is the maximal rate of inactivation, KI is the concentration of inhibitor that affords half-maximal inactivation, and [I] is the concentration of inhibitor. When kobs with [I] varied linearly, kinact/KI was determined from the slope of the line. All the experiments were performed in triplicate. All fluorescence measurements were taken at absorption/emission wavelength of 400/505 nm using an EnVision 2105 plate reader. Crystallization of M^Pro in Complex with Inhibitors

SARS-CoV-2 = assay: microbe, parasite or virus in culture; type: cell-based; conditions: for EC90: read-out: EC90, inhibition of SARS-CoV-2 infection; for EC50: read-out: EC50, inhibition of SARS-CoV-2 infection; for IC50: hACE2 expressing A549 cells, read-out: IC50, block of SARS-CoV2 replication
OC-43 = type: cell-based; conditions: A549-hACE2 cells
M^Pro [3] = target: T4, M^Pro (Severe acute respiratory syndrome coronavirus 2, UniProt P0DTD1); type: binding
M^Pro [4] = target: T4, M^Pro; assay: Labelling of A549-hACE2 lysate spiked with recombinant M^Pro with SM144, competition by SM141 or SM142; type: binding, SARS-CoV-2; conditions: 250 nM M^Pro spiked, 2.5 μM SM144, 2.5-25 μM competitor
Experimental: A549-hACE2 cells were grown in the DMEM medium (supplemented with 10% heat-inactivated fetal bovine serum, 100 units/mL penicillin and 100 μg/mL streptomycin). Upon reaching ˜90% confluence, cells were collected using a cell scraper, harvested by centrifugation at 3,000 rpm for 5 min and were resuspended in 1×PBS supplemented with 1% NP-40. Then the cells were lysed using a probe sonicator and lysates were cleared by centrifugation at 21000 g for 15 min. Soluble proteins in the lysate were quantified by DC-assay (Bio-Rad).
A549-hACE2 lysate (2 mg/mL, 50 μL total) spiked with or without recombinant M^Pro (250 nM final) was treated with DTT (1 mM final) and various concentrations of SM144 (0-5 μM final). […] All these reactions were incubated at 25° C. for 30 min. Then TAMRA-N3 (100 μM), TCEP (1 mM), TBTA (0.3 mM) and freshly prepared copper (II) sulphate (4 mM) were added sequentially to the reaction mixture. The tubes were then gently tumbled at room temperature for 2 h. The precipitated proteins were collected by centrifugation at 5000 rpm for 6 min. The protein pellets were resuspended in 5×SDS-PAGE loading dye, heated at 95° C. for 10 min and separated by SDS-PAGE. Protein bands were visualized by recording in-gel fluorescence using a typhoon scanner (excitation/emission maxima ˜546/579 nm). All the experiments were performed in duplicate.

[5] = mock-infected mice
[6] = Pharmacokinetic parameters in mice (plasma, LC-MS/MS); conditions: for CI_Obs: IV
Experimental: Pharmacokinetics were evaluated in male C57Bl/6 mice, approximately 25 g. Test compounds were formulated at 0.3 mg/mL for intravenous dosing and 1 mg/mL for oral gavage. Formulation concentrations reflect free-base concentrations. Formulations were prepared by dissolving in DMSO (20× stock) and mixing 1:1 with tween-80. Prior to dosing, the formulation was diluted with sterile saline. The final formulation was 5% DMSO, 5% tween-80, 90% saline (v:v:v). Mice (n=3) were dosed at 10 μL per gram body weight. […] A total of 25 μL blood was collected at each time point. The hematocrit tubes were sealed with a wax plug and held on ice until plasma could be isolated via centrifugation in a microcentrifuge fit with a hematocrit rotor.
Drug levels were determined from 5 μL plasma. Plasma was treated with 75 μL 90/10 acetonitrile/water containing Carbamazepine as an internal standard (IS). Samples were loaded to a 96-well Millipore Multiscreen Solvinter 0.45 micron low binding PTFE hydrophilic filter plate and the filtrate was directly analyzed. All plasma samples were treated with 75 μL 90/10 acetonitrile/water with Carbamazepine as internal standard (IS) to extract the analyte and precipitate protein. The plates were agitated on ice for approximately five minutes prior to centrifugation into a collection plate. Separate standard curves were prepared in blank mouse plasma and brain homogenate and processed in parallel with the samples. The filtrate was directly analyzed by LC-MS/MS.

[7] = Severe acute respiratory syndrome coronavirus 2, A549-hACE2 cells
[8] = Severe acute respiratory syndrome coronavirus 2
[9] = 12.5 nM M^Pro, 20 min preincubation, 30 μM substrate, read-out: M^Pro IC50
[10] = competitive inhibition, initial velocity, read-out: M^Pro Ki
[11] = 30 nM PL^Pro, 20 min preincubation, read-out: PL^Pro IC50
[12] = male, C57Bl/6, mouse, plasma, iv, 3 mg/kg
[13] = male, C57Bl/6, mouse, plasma, po, 10 mg/kg

## CCOC(=O)C=CC(CC1CCNC1=O)NC(=O)C(Cc1ccccc1)NC(=O)C(N)Cc1ccccc1 (centres unmarked) [SM141]
SARS-CoV-2 M^Pro [1]
  IC50: 900 nM
SARS-CoV-2 M^Pro [2]
  Ki: 9000 nM
SARS-CoV-2 PL^Pro
  IC50: > 50000 nM
  inhibition of papain-like protease (PL^Pro), in words: completely inactive
Cathepsin L
  IC50: 60 nM
Cathepsin B
  IC50: > 50000 nM
SARS-CoV-2; A549-hACE2 cells, 2 μM, 24 h
  antiviral activity, in words: almost completely blocks viral infection
SARS-CoV-2; A549-hACE2 cells
  EC90: 22 nM
SARS-CoV-2; [7]
  EC50: 8.2 nM
  EC90: 22.1 nM
SARS-CoV-2; [8]
  IC50: 8.2 nM
OC-43
  inhibition of OC-43, in words: inhibit OC-43
M^Pro [3]; 0-50 μM competitor, 5 μM SM144
  inhibition of SM144 labeling of recombinant M^Pro: competitively inhibited
M^Pro [4]
  labeling of M^Pro in spiked A549-hACE2 lysate / its inhibition: dose dependently inhibited
[5]
  weight loss in uninfected mice: no significant weight loss in the uninfected mice
[6]; mice
  oral bioavailability / oral absorption, in words: minimal oral bioavailability
  plasma half-life (T1/2), in words: about an hour
  tissue distribution, in words: lower tissue distribution
  CI_Obs: 71.5 mL/min/kg

## CCOC(=O)C=CC(CC1CCNC1=O)NC(=O)C(Cc1ccccc1)NC(=O)C(Cc1ccc(F)cc1)NC(=O)OC(C)(C)C (centres unmarked) [SM142]
SARS-CoV-2 M^Pro [1]; [9]
  IC50: 1800 nM
SARS-CoV-2 M^Pro [2]; [10]
  Ki: 10000 nM
SARS-CoV-2 PL^Pro
  inhibition of papain-like protease (PL^Pro), in words: completely inactive
SARS-CoV-2 PL^Pro; [11]
  IC50: > 50000 nM
Cathepsin L
  IC50: 145 nM
  kinact/KI: 1830 M⁻¹ s⁻¹
Cathepsin B
  IC50: 40000 ± 9000 nM
SARS-CoV-2; [7]
  EC50: 14.7 nM
SARS-CoV-2; [8]
  IC50: 14.7 nM
OC-43
  inhibition of OC-43, in words: inhibit OC-43
M^Pro [4]
  labeling of M^Pro in spiked A549-hACE2 lysate / its inhibition: dose dependently inhibited
[5]
  weight loss in uninfected mice: no significant weight loss in the uninfected mice
[6]; male, C57Bl/6, mouse, in vivo, po, 10 mg/kg
  half-life: 2.1 h
[6]; [12]
  AUC(0-inf): 308 ng·h/mL
  AUC(0-t): 0.4 µM·h
  Cmax: 400 nM
  MRT inf: 1.9 h
  Tmax: 4.8 min
  Vd: 13.2 L/kg
  half-life: 2.1 h
[6]; [13]
  AUC(0-inf): 347 ng·h/mL
  AUC(0-t): 0.5 µM·h
  Cmax: 600 nM
  Tmax: 4.8 min
  bioavailability: 37.5%
[6]; mice
  oral bioavailability / oral absorption, in words: significant oral absorption
  tissue distribution, in words: much higher tissue distribution than SM141
  CI_Obs: 169 mL/min/kg

## C#CCOCCC(=O)NC(Cc1ccc(F)cc1)C(=O)NC(Cc1ccccc1)C(=O)NC(C=CC(=O)OCC)CC1CCNC1=O (centres unmarked) [SM144]
SARS-CoV-2 M^Pro [1]; [9]
  IC50: 700 nM
SARS-CoV-2 M^Pro [2]; [10]
  Ki: 4500 nM
SARS-CoV-2 PL^Pro; [11]
  IC50: > 50000 nM
Cathepsin L
  IC50: 220 nM
  kinact/KI: 1000 M⁻¹ s⁻¹
Cathepsin B
  IC50: > 50000 nM
SARS-CoV-2; A549-hACE2 cells
  antiviral activity compared with SM141 and SM142: significantly lower antiviral activity than SM141 and SM142
M^Pro [3]; 5 μM SM144, TAMRA-azide, in-gel fluorescence
  limit of detection of M^Pro by the probe: 5 pmol
M^Pro [4]
  labeling of M^Pro in spiked A549-hACE2 lysate / its inhibition: selectively labels M^Pro in a dose-dependent manner
